Results taken from patent US7326700B2, “Cyclohexenyl phenyl carboxamides tocolytic oxytocin receptor antagonists” (Wyeth, priority 2001, dated 2008).
Where a name gives a salt, the structure may show the parent alone.

Molecular target: T1, human vasopressin V2 receptor subtype (Homo sapiens, UniProt P30518)
T1 construct: host or cells: CHO cells, stably transfected (pZeoSV vector)
Test: Vasopressin binding in CHO cell membranes expressing human vasopressin V2 subtype receptors ([3H]arginine vasopressin radioligand binding)
Conditions: for V2 % inhibition @ 100 nM / inhibition at 0.1 µM: 100 nM; for IC50: value in parentheses
Excerpt: Chinese Hamster Ovary (CHO) cells stably transfected with the human V2 subtype receptors were obtained from M. Thibonnier, Case Western Reserve University School of Medicine, Cleveland, Ohio.
CHO cells transfected with the human vasopressin V2 subtype receptors obtained from M. Thibonnier (pZeoSV vector) are allowed to grow to confluency (approx. >90%) in T-150 flasks under sterile conditions, in a cell culture medium consisting of F-12 Nutrient Mixture (HAM) with L-glutamine (Gibco Cat. #11765-054) containing 15 mM HEPES (Gibco Cat. #15630-080), 1% antibiotic/antimycotic (add 5 mL 100×, Gibco Cat. #15240-062 per 500 mL F-12), 250 μg/mL Zeocin (add 1.25 mL of 100 mg/mL Invitrogen R-250-01 per 500 mL F-12) and 10% Fetal Bovine Serum (Qualified, heat inactivated, Gibco Cat. #16140-063). The medium is removed by aspiration and the cells washed with 10 mL of Hank's Balanced Salt solution (Gibco Cat. #14175-095). The salt solution is removed by aspiration and the cells trypsinized with 5 mL of trypsin-EDTA (0.05% trypsin, 0.53 mM EDTA-4Na, Gibco Cat. #25300-070) for 1 min. The trypsin is removed by aspiration and the cells dislodged by tapping. Cell Culture medium (e.g. 30 mL for 1:30 split) is immediately added and mixed well to inactivate trypsin. 1 mL of detached cells is added to new culture flasks containing fresh Cell Culture medium (e.g. into 25 mL per T-150 flask), and mixed gently. The cells are incubated at 37° C. in 5% CO2. The medium is changed at 3 to 4 day interval (or as appropriate). The cells grow to confluency (approx. >75%-95%) within 7-8 days. All steps are done under sterile conditions.
The cells are washed twice gently with Hank's Balanced Salt solution (e.g. use 10 mL per T-150 flask). The excess solution is removed and the cells bathed for 15-30 min. in an enzyme-free Cell Dissociation Buffer (e.g. use 8 mL Hank's Based, Gibco Cat. #13150-016 per T-150 flask) until cells are loosened. The contents are transferred to centrifuge tubes (50 mL) kept in an ice bath. All subsequent steps are done at 4° C. The tubes are centrifuged at 300×g for 15 min (1380 rpm on SORVAL, Model RT6000D, using the rotor for 50 mL tubes). The supernatant is discarded and the cells suspended in homogeneizing buffer(10 mM Tris-HCl containing 0.25 M sucrose and 1 mM EDTA, pH 7.4) ensuring that the volume of the buffer is about ten times the volume of the cell pellet. The cells are pooled into a centrifuge tube (50 mL) and homogenized with Polytron at setting 6 for 10 sec. The homogenate is transferred into a Potter-Elvjehm homogeneizer and homogenized with 3 strokes. The homogenate is centrifuged at 1500×g for 60 min at 4° C. (3100 rpm using SORVAL, model RT6000D, using the rotor for 50 mL tubes). The pellet is discarded. The supernatant is centrifuged at 100,000×g for 60 min. at 4° C. (Beckman L8-80M ultracentrifuge; spin at 37,500 rpm with rotor type 70 Ti for 50 mL tubes; 38,000 rpm with type 80 Ti for 15 mL tubes; or 35,800 rpm with rotor type 45Ti). The supernantant is discarded and the pellet suspended in 3 to 4 mL of Tris buffer (50 mM TRIS-HCl, pH 7.4). The protein content is estimated by the Bradford or Lowry method. The volume of the membrane suspension is adjusted with the membrane buffer (50 mM Tris-HCl containing 0.1% BSA and 0.1 mM PMSF) to give 3.0 mg/mL (or as appropriate) of protein. The membranes are aliquoted and stored at −70° C.
In wells of a 96-well format microtiter plate, is added 90, 110 or 130 μL (to make up a final volume of 200 μL) of assay buffer containing 50 mM of Tris-HCl (pH 7.4), […], 1 mg % aprotinin, 1 mg % leupeptin, 2 mg % 1,10-phenanthroline, 10 mg % trypsin inhibitor, and 0.1 mM PMSF. The inhibitors are added on the day of the experiment. The components are mixed at room temperature, and then kept in ice bath following adjustment of the pH to 7.4. […]

Row | V2 % inhibition @ 100 nM | inhibition at 0.1 µM | Compound | other results
1 | 12% |  | C=CCN1CCN(C(=O)c2ccc3n2Cc2ccccc2N(C(=O)c2ccc(C4=CCCCC4)c(C)c2)C3)CC1 [Example 24, (4-Allyl-1-piperazinyl){10-[4-(1-cyclohex-1-en-1-yl)-3-methylbenzoyl]-10,11-dihydro-5H-pyrrolo[2,1-c][1,4]benzodiazepin-3-yl}methanone] | 
2 | 2% |  | Cc1cc(C(=O)N2Cc3ccc(C(=O)N4CCC(N5CCCCC5)CC4)n3Cc3ccccc32)ccc1C1=CCCCC1 [Example 17, {10-[4-(1-Cyclohex-1-en-1-yl)-3-methylbenzoyl]-10,11-dihydro-5H-pyrrolo[2,1-c][1,4]benzodiazepin-3-yl}[4-(1-piperidinyl)-1-piperidinyl]methanone] | 
3 |  | 4% | COc1cc(C2=CCCCC2)c(Cl)cc1C(=O)N1Cc2ccc(C(=O)N(C)CCCN(C)C)n2Cc2ccccc21 [Example 2, 10-(5-Chloro-4-cyclohex-1-en-1-yl-2-methoxybenzoyl)-N-[3-(dimethylamino)propyl]-N-methyl-10,11-dihydro-5H-pyrrolo[2,1-c][1,4]benzodiazepine-3-carboxamide] | 
4 | 10% |  | Cc1cc(C(=O)N2Cc3ccc(C(=O)N(C)CCCN(C)C)n3Cc3ccccc32)ccc1C1=CCCCC1 [Example 16, 10-[4-(1-Cyclohex-1-en-1-yl)-3-methylbenzoyl]-N-[3-(dimethylamino)propyl]-N-methyl-10,11-dihydro-5H-pyrrolo[2,1-c][1 ,4]benzodiazepine-3-carboxamide] | 
5 |  | 11% | Cc1cc(C(=O)N2Cc3ccc(C(=O)N4CCN(C)CC4)n3Cc3ccccc32)ccc1C1=CCCCC1 [Example 4, [10-(4-Cyclohex-1-en-1-yl-3-methyl-benzoyl)-10,11-dihydro-5H-pyrrolo[2,1-c][1,4]benzodiazepin-3-yl]-(4-methyl-piperazin-1-yl)-methanone] | 
6 |  | 17% | Cc1cc(C(=O)N2Cc3ccc(C(=O)N4CCN(C)CC4)n3Cc3ccccc32)ccc1C1=CCCc2ccccc21 [Example 6, {10-[4-(3,4-Dihydro-naphthalen-1-yl)-3-methyl-benzoyl]-10,11-dihydro-5H-benzo[e]pyrrolo[1,2-a][1,4]diazepin-3-yl}-(4-methyl-piperazin-1-yl)-methanone] | 
7 | 18% |  | Cc1cc(C(=O)N2Cc3ccc(C(=O)N4CCC(N5CCCC5)CC4)n3Cc3ccccc32)ccc1C1=CCCCC1 [Example 19, {10-[4-(1-Cyclohex-1-en-1-yl)-3-methylbenzoyl]-10,11-dihydro-5H-pyrrolo[2,1c][1,4]benzodiazepin-3-yl}[4-(1-pyrrolidinyl)-1-piperidinyl]methanone] | 
8 |  |  | {10-[4-(1-Cyclohexen-1-yl)-3-methylbenzoyl]-10,11-dihydro-5H-pyrrolo[2,1-c][1,4]benzodiazepin-3-yl}(4-methyl-piperazin-1-yl)methanone [Example 12] | IC50: > 1 µM
9 | 11% |  | Cc1cc(C(=O)N2Cc3ccc(C(=O)NCCC4CCCN4C)n3Cc3ccccc32)ccc1C1=CCCCC1 (stereo not shown) [Example 21, 10-[4-(1-Cyclohex-1-en-1-yl)-3-methylbenzoyl]-N-[2-(1-methyl-2-pyrrolidinyl)ethyl]-10,11-dihydro-5H-pyrrolo[2,1-c][1,4]benzodiazepine-3-carboxamide] | 
10 |  |  | COc1cc(C2=CCCCC2)c(Cl)cc1C(=O)N1Cc2ccc(C(=O)N3CCC[C@H]3CN3CCCC3)n2Cc2ccccc21 [Example 1, 4-Chloro-5-cyclohex-1-en-1-yl-2-[(3-{[(2S)-2-(pyrrolidin-1-ylmethyl)pyrrolidin-1-yl]carbonyl}-5H-pyrrolo [2,1-c][1,4]benzodiazepin-10(11H)-yl)carbonyl]phenyl methyl ether] | IC50: > 3 µM
11 |  | 19% | Cc1cc(C(=O)N2Cc3ccc(C(=O)N4CCN(CCCN(C)C)CC4)n3Cc3ccccc32)ccc1C1=CCCCC1 [Example 5, [10-(4-Cyclohex-1-en-1-yl-3-methyl-benzoyl)-10,11-dihydro-5H-pyrrolo[2,1-c][1,4]benzodiazepin-3-yl]-[4-(3-dimethylamino-propyl)-piperazin-1-yl]-methanone] | 
12 | 5% |  | Cc1cc(C(=O)N2Cc3ccc(C(=O)NCCCN(C)C)n3Cc3ccccc32)ccc1C1=CCCCC1 [Example 14, 10-[4-(1-Cyclohex-1-en-1-yl)-3-methylbenzoyl]-N-[3-(dimethylamino)propyl]-10,11-dihydro-5H-pyrrolo[2,1-c][1,4]benzodiazepine-3-carboxamide] | 
13 | 18% |  | Cc1cc(C(=O)N2Cc3ccc(C(=O)N4CCN(CCN5CCOCC5)CC4)n3Cc3ccccc32)ccc1C1=CCCCC1 [Example 23, {10-[4-(1-Cyclohex-1-en-1-yl)-3-methylbenzoyl]-10,11-dihydro-5H-pyrrolo[2,1-c][1,4]benzodiazepin-3-yl}{4-[2-(4-morpholinyl)ethyl]-1-piperazinyl}methanone] | 
14 |  |  | COc1cc(C2=CCCCC2)c(Cl)cc1C(=O)N1Cc2ccc(C(=O)N(C)CCCN(C)C)n2Cc2ccccc21 [Example 3, 10-(5-Chloro-4-cyclohex-1-en-1-yl-2-methoxybenzoyl)-N-[3-(dimethylamino)propyl]-N-methyl-10,11-dihydro-5H-pyrrolo[2,1-c][1,4]benzodiazepine-3-carboxamide citric acid salt] | IC50: 5.84 µM
15 |  | 30% | Cc1cc(C(=O)N2Cc3ccc(C(=O)N4CCN(CCCN(C)C)CC4)n3Cc3ccccc32)ccc1C1=CCCc2ccccc21 [Example 7, {10-[4-(3,4-Dihydro-naphthalen-1-yl)-3-methyl-benzoyl]-10,11-dihydro-5H-pyrrolo[2,1-c][1,4]benzodiazepin-3-yl}-[4-(3-dimethylamino-propyl)-piperazin-1-yl]-methanone] | 
16 | 5% |  | Cc1cc(C(=O)N2Cc3ccc(C(=O)N(C)CCN(C)C)n3Cc3ccccc32)ccc1C1=CCCCC1 [Example 15, 10-[4-(1-Cyclohex-1-en-1-yl)-3-methylbenzoyl]-N-[2-(dimethylamino)ethyl]-N-methyl-10,11-dihydro-5H-pyrrolo[2,1-c][1,4]benzodiazepine-3-carboxamide] | 
17 |  | 14% | CC1=C(c2ccc(C(=O)N3Cc4ccc(C(=O)N5CCN(C)CC5)n4Cc4ccccc43)cc2C)CCC[C@H]1O [Example 11, [4-((3R)-3-Hydroxy-2-methyl-cyclohex-1-en-1-yl)-3-methyl-phenyl]-[3-(4-methyl-piperazine-1-carbonyl)-10,11-dihydro-5H-pyrrolo [2,1-c][1,4]benzodiazepin-10-yl]-methanone] | 
18 | 20% |  | Cc1cc(C(=O)N2Cc3ccc(C(=O)NCCCn4ccnc4)n3Cc3ccccc32)ccc1C1=CCCCC1 [Example 18, 10-[4-(1-Cyclohex-1-en-1-yl)-3-methylbenzoyl]-N-[3-(1H-imidazol-1-yl)propyl]10,11-dihydro-5H-pyrrolo[2,1-c][1,4]benzodiazepine-3-carboxamide] | 
19 | 10% |  | Cc1cc(C(=O)N2Cc3ccc(C(=O)N4CCN(C(C)C)CC4)n3Cc3ccccc32)ccc1C1=CCCCC1 [Example 25, {10-[4-(1-Cyclohex-1-en-1-yl)-3-methylbenzoyl]-1 0,11-dihydro-5H-pyrrolo[2,1-c][1,4]benzodiazepin-3-yl}(4-isopropyl-1-piperazinyl)methanone] | 
